Data: US20080132568A1, “COMPOUNDS WITH ANTI-ANDROGENIC ACTIVITY AND THE USE THEREOF” (priority 2006, published 2008)
Entries after “also recorded” stand apart in the source; their conditions may differ.

Columns and labels:
Type in all cases: cell-based, human
[1] = test system: androgen-sensitive MMTV promoter; assay: Promoter activation assay (MMTV/luciferase) in LNCaP; conditions: 30 μM, 48 hours
Protocol: Promoter activation assay: LNCaP and LAPC4 prostate carcinoma cell lines were cultured in 12- or 24-well cell culture plates (Costar) in DMEM/CSS 2 to 3 days before transfection. Androgen-induced transcriptional activation was determined using a reporter construct with an MMTV promoter that regulates the expression of luciferase (Thompson T A et al., In Vitro Cell. Dev. Biol. 1993, 29A:165-170). LNCaP cells were transfected using the calcium phosphate precipitation method with an MMTV/luciferase plasmid. LAPC4 cells were transfected with an MMTV/luciferase plasmid using the FuGENE 6 Transfection Reagent (Roche Applied Science), according to the manufacturer's instructions. Twenty-four hours after transfection, cells were treated with R1881 with or without test reagents at the specified concentrations. Cell extracts were acquired 24 to 48 hours after treatment in 100 μL of Cell Culture Lysis Reagent (Promega, Madison, Wis.). Luciferase activity was measured using the Luciferase Assay Substrate (Promega, Madison, Wis.) according to instructions and read on a TD-20/20 Luminometer (Turner Designs, Sunnyvale, Calif.).

[2] = test system: LAPC4 prostate cancer cells; assay: CyQUANT cell proliferation assay, LAPC4; conditions: 10 to 50 μM, 4 days
Protocol: (§1) Cell culture and treatment protocols: The LNCaP prostate cancer cells used in these studies were acquired from American Type Culture Collection (Manassas, Va.). All cell lines were maintained in Dulbecco's modified Eagle's medium (DMEM; Invitrogen, Carlsbad, Calif.) containing 5% heat-inactivated fetal calf serum (FCS; Sigma, St. Louis, Mo.) with streptomycin-penicillin antibiotics (designated DMEM/FCS) in a 5% CO2 incubator at 37° C. LAPC4 prostate cancer cells adapted to growth in DMEM and 5% FCS were acquired from George Wilding (University of Wisconsin Paul P. Carbone Comprehensive Cancer Center). For experiments evaluating androgenic responses, cells were cultured in DMEM containing 4% charcoal-stripped FCS and 1% unstripped FCS (designated DMEM/CSS). […]
(§2) Cell proliferation and viability assays: Cell numbers were determined using a hemacytometer. Relative cell growth changes were determined using cells plated in 96-well tissue culture plates using the CyQUANT NF Cell Proliferation Assay Kit (Invitrogen) according to manufacturer's instructions. Cell viability was measured using trypan blue exclusion and quantified using light microscopy and hemacytometry. Additionally, cell viability was measured by propidium iodide exclusion using flow cytometry (FACScan; BD Biosciences, San Jose, Calif.) after VE and ATQ treatment.

[3] = test system: PC3 prostate cancer cell line; assay: Growth of androgen-independent PC3 cells; conditions: 4 days, data not shown
Protocol: as §2

AR mRNA [4] = assay: AR mRNA expression by qPCR, LAPC4; conditions: for AR mRNA levels (qPCR): LAPC4, 4 days
Protocol: (§3) Messenger RNA expression analysis: Total RNA was extracted from cells using TRIzol Reagent (Invitrogen, Carlsbad, Calif.) and cDNA was prepared from total RNA using the High Capacity cDNA Reverse Transcription Kit (Applied Biosystems, Foster City, Calif.). Quantititive PCR was performed for AR expression using an Applied Biosystems 7900HT Fast Real-Time PCR System (Carlsbad, Calif.) and QuantiTect Primers Assays (Qiagen Inc., Valencia, Calif.) for AR and GAPDH mRNA.

LNCaP cells = assay: LNCaP viability by propidium iodide exclusion and flow cytometry; conditions: 30 μM, 4 days
Protocol: as §1, §2

AR mRNA [5] = assay: AR mRNA expression by qPCR, LNCaP; conditions: 4 days
Protocol: as §3

PSA = assay: Prostate specific antigen analysis, LNCaP medium; conditions: for R1881-induced PSA release / PSA levels in medium: 10 to 40 μM
Protocol: Prostate specific antigen analysis: LNCaP cells were cultured in 96-well plates (Costar) at 5,000 cells per well in DMEM/CSS 1 day before treatment. Forty-eight hours after treatment, media levels of PSA released from LNCaP cells were measured using a PSA Enzyme Immunoassay Test Kit (BioCheck, Inc., Foster City, Calif.) according to manufacturer's instructions supplied with the kit. PSA levels were normalized to cell numbers as determined using the CyQUANT NF Cell Proliferation Assay Kit (Invitrogen), as described previously.

[6] = test system: LNCaP prostate cancer cells; assay: CyQUANT cell proliferation assay, LNCaP; conditions: 10 to 50 μM, 4 days
Protocol: as §1, §2

AR protein [7] = assay: Immunoblot analysis of AR protein, LNCaP; conditions: 4 days
Protocol: (§4) Immunoblot analysis: LNCaP or LAPC4 prostate cancer cells were plated at a density of 1×10^6 cells per 100 mm cell culture plate in 10 ml of DMEM/CSS and maintained in incubators at 37° C. in 5% CO2. […] Cell extracts were stored at −80° C. until analysis. Total protein (25 μg) from cell extracts were electrophoresed on 7.5% SDS-polyacrylamide gels and transferred to Immobilon-P membranes (Millipore Corp., Bedford, Mass.) using a GENIE wet transfer system (Idea Scientific, Minneapolis, Minn.). Membranes were blocked in Tris-buffered saline containing 5% nonfat dry milk and then incubated with mouse anti-AR (441) monoclonal antibody (Santa Cruz Biotechnology, Santa Cruz, Calif.) or mouse anti-actin antibody (A5441; Sigma). After washing, membranes were incubated with a secondary horseradish peroxidase-conjugated goat anti-mouse IgG (Biomeda, Foster City, Calif.) and analyzed using Western Lightening Chemiluminescence Reagent Plus (Boston, Mass.) on a Kodak Image Station 4000MM (Rochester, N.Y.). Band intensities were determined using Kodak Molecular Imaging Software.

AR protein [8] = assay: Immunoblot analysis of AR protein, LAPC4
Protocol: as §4

Structure (SMILES)	Androgen-induced (R1881) MMTV promoter luciferase activity [1]	LAPC4 cell growth (CyQUANT) [2]	PC3 cell growth [3]	AR mRNA levels (qPCR) (AR mRNA [4])	Cell viability (LNCaP cells)	AR mRNA levels (qPCR) (AR mRNA [5])	R1881-induced PSA release / PSA levels in medium (PSA)	LNCaP cell growth (relative growth, CyQUANT) [6]	decrease in AR mRNA levels (AR mRNA [4]; LAPC4, 30 μM, 4 days) [fold]	decrease in AR mRNA levels (AR mRNA [5]; 30 μM) [fold]	reduction in AR protein levels (AR protein [7]; 30 μM) [fold]	AR protein levels (AR protein [7])	reduction in AR protein levels (AR protein [8]; LAPC4, 25 μM, 4 days) [fold]	AR protein levels (AR protein [8]; LAPC4, 4 days)	reduction in R1881-induced PSA release compared to untreated control cells (PSA; 10 μM) [%]	decrease in PSA release compared to untreated controls (PSA; 40 μM) [fold]
Cc1c(C)c2c(c(C)c1O)CCC(C)(CCCC(C)CCCC(C)CCCC(C)C)O2 (racemic) [VE, dl-α-tocopherol, reference compound]	significantly increased	modest, but significant, decrease; also recorded: decreased slightly; also recorded: much less effective	neither ATQ nor VE decreased the growth	did not affect	did not affect	did not affect	did not affect; also recorded: remained unchanged	–	–	–	–	–	–	–	–	–
CC1=C(C)C(=O)C(CC[C@](C)(O)CCC[C@H](C)CCC[C@H](C)CCCC(C)C)=C(C)C1=O [ATQ, α-tocopherylquinone]	inhibit; also recorded: significantly reduced	dose-dependent decrease; also recorded: significantly decreased	neither ATQ nor VE decreased the growth	reduced levels	significantly decreased	reduced levels	significantly reduced; also recorded: inhibited	dose-dependent decrease; also recorded: significantly decreased	2	2	4	decreased	4	decreased	50	4
